Assay results reported in patent publication US20220298511A1, “APPLICATION OF COMBINED INHIBITION OF LNCRNA SAMMSON AND BRAF KINASE IN DELAYING ADAPTIVE DRUG-RESISTANCE OF MELANOMA” (XI'AN JIAOTONG UNIVERSITY, priority 2021, published 2022).

Key:
[1] = test system: SAMMSON RNA level in A375 melanoma cells carrying BRAF^V600E mutation; test: qRT-PCR analysis of SAMMSON RNA level after kinase inhibitor treatment; conditions: 2 μM inhibitor, 0, 6 and 24 hours, actin as internal control
Method: (§3) Melanoma cell lines 1205Lu and A375 carrying BRAF^V600E mutation and HEK293FT cells were cultured in a 37° C. constant temperature incubator (containing 5% CO2). The A375 and HEK293FT cells were cultured in Dulbecco's Modified Eagle's Medium (DMEM), and the 1205Lu cells were cultured in Roswell Park Memorial Institute 1640 medium (RPMI 1640 medium). Both of the media contain 10% fetal bovine serum, penicillin (100 units/ml), and streptomycin (100 μg/ml).
(§4) Total RNA was extracted from the melanoma cells using TriPure Isolation Reagent (Roche, Basel, Switzerland), and then reverse transcribed into cDNA using the kit PrimeScript RT Master Mix (Takara #DRR036A, Osaka, Japan). Quantitative real-time PCR reactions were performed using iQ SYBR Green Supermix (BioRad), and analyzed by CFX Connect real-time PCR detection system (BioRad).

[2] = test system: SAMMSON RNA level in 1205Lu melanoma cells carrying BRAF^V600E mutation; test: as above; conditions: 1205Lu cells, 2 μM inhibitor, 0, 6 and 24 hours, actin as internal control
Method: as §3, §4

[3] = test system: A375 cells; test: Annexin-V/PI apoptosis assay with SAMMSON siRNA knockdown and vemurafenib; type: cell-based; conditions: then 5 μM vemurafenib 48 hours
Method: (§1) The cells were collected, washed twice with PBS and stained for 20-30 minutes using Annexin-V-FLUOS kit (Roche) according to the manufacturer's protocol. The stained cells were analyzed by a flow cytometer (Beckman Coulter, Indianapolis Ind., USA). The data were analyzed using Flowjo software (Three Star, Inc., Ashland, Oreg., USA).
The non-targeting control siRNA sequence is:
We tested whether the up-regulation of SAMMSON induced by the inhibition of the ERK signaling pathway is involved in the adaptive drug-resistance of melanoma cells. Two pairs of specific siRNAs (SEQ ID NO: 4 and SEQ ID NO: 5) were used to knock down SAMMSON in two melanoma cell lines A375 and 1205Lu carrying BRAF mutations. […] Referring also to FIGS. 3C to 3F, in A375 cells, percentage of cell apoptosis increased from 19% to 43% (SAM #1) and 37% (SAM #2), and in 1205Lu cells, from 26% to 43% (SAM #1) and 46% (SAM #2).

[4] = test system: 1205Lu TR SAMMSON cells; test: Annexin-V/PI apoptosis assay with doxycycline-induced SAMMSON overexpression; type: cell-based; conditions: 5 μM vemurafenib 48 hours
Method: (§2) The wild-type HA-SOX10 cDNA or SAMMSON cDNA was cloned into a pENTR/D-TOPO vector (Thermo Fisher Scientific) to construct an entry vector. Then, the entry vector and a pLentipuro/TO/V5-DEST vector were recombined to form a lentiviral vector. Lentivirus packaging for the lentiviral vector was performed in HEK293FT cells to produce lentiviruses. The melanoma cells 1205Lu and A375 were infected with the lentiviruses for 72 hours, and then screened by using puromycin to produce A375-TR HA-SOX10 WT cells, 1205Lu-TR HA-SOX10 WT cells, A375-TR SAMMSON cells and 1205Lu-TR SAMMSON cells.
as §1

[5] = test system: A375 TR SAMMSON cells; test: as above; type: cell-based; conditions: 5 μM vemurafenib 48 hours
Method: as §2, §1

[6] = with 100 ng/ml doxycycline 72 hours (SAMMSON overexpressed)

O=C(Nc1ccc2[nH]nc(-c3ccncc3)c2c1)[C@@H]1CCN(CC(=O)N2CCN(c3ccc(-c4ncccn4)cc3)CC2)C1 [SCH772984]
RNA level of SAMMSON [1]: rapidly up-regulate the RNA level of SAMMSON
RNA level of SAMMSON [2]: rapidly up-regulate the RNA level of SAMMSON

CCCS(=O)(=O)Nc1ccc(F)c(C(=O)c2c[nH]c3ncc(-c4ccc(Cl)cc4)cc23)c1F [vemurafenib, Vemurafenib]
percentage of cell apoptosis ([3]; control siRNA 48 hours): 19%
percentage of cell apoptosis [4, 6]: 33%
percentage of cell apoptosis ([4]; without doxycycline): 44%
percentage of cell apoptosis [5, 6]: 33%
percentage of cell apoptosis ([5]; without doxycycline): 51%

SAM #1: SAMMSON-specific siRNA, SEQ ID NO: 4, 5′-GUCGCUAGACAUUUGAGGA-3′ (listed as RNA, chemistry not given here)
percentage of cell apoptosis ([3]; SAMMSON siRNA 48 hours): 43%

SAM #2: SAMMSON-specific siRNA, SEQ ID NO: 5, 5′-CCAACUCUCAAAGUAACUU-3′ (listed as RNA, chemistry not given here)
percentage of cell apoptosis ([3]; SAMMSON siRNA 48 hours): 37%
